The source of these data is patent US9012481B2, “Benzoarylureido compounds, and composition for prevention or treatment of neurodegenerative brain disease containing the same” (Korea Institute of Science and Technology, priority 2009, dated 2015).

What all share (assay type): cell-based
For one experiment, the system named is phospho-ERK2. Kind of experiment: Immunoblotting of phospho-ERK2 in beta-amyloid stimulated BV-2 cell culture. The settings on record: beta-amyloid together with KHG25967 (50 nM) compared to beta-amyloid only. The method, then: (§1) The beta-amyloid treated cells (6-well of 5×10^5 cells/3 Ml, allotted from Pharmacology Division of Ajou University) were collected, and washed with phosphate-buffered saline (PBS). After centrifugation, the cells were dissolved in 0.1 ml of RIPA buffer (containing 150 mM NaCl, 1% NP-40, 0.5% sodium deoxycholate, 0.1% SDS, 50 mM Tris-HCl, pH 7.4, 50 mM glyycerophosphate, 20 mM NaF, 20 mM EGTA, 1 mM DTT, 1 mM Na3VO4, and protease inhibitor) at 4° C. for 15 minutes by strong shaking. The cells were cultivated in ice for 10 minutes, the lysate was centrifuged at 14,000 rpm for 5 minutes. 20 μg of a protein obtained from the cell lysate was heated, and then, electrophoresed on 12% polyacrylamide gel under reduction condition. The cells were incubated in blocking buffer (20 mM Tris, pH 7.4-buffer saline containing 0.1% tween 20 containing 5% lipid-free dried milk) for 1 hour, to suppress non-specific binding. […]
(§2) To examine the effect of compound KHG25967 on phosphorylation of ERK (extracellular signal-regulated kinase) and expression of caspase 3 by beta-amyloid, a possible protein expression of ERK1/2 (extracellular signal-regulated kinase 1 & 2) and caspase 3 in BV-2cell culture stimulated with beta-amyloid were measured. […]
A general note: Immunoblotting shows a protein as a band on a membrane.

Another experiment relates to caspase 3. The experiment is described as follows: Immunoblotting of cleaved caspase 3 in beta-amyloid stimulated BV-2 cell culture. Particulars: beta-amyloid together with KHG25967 (50 nM) compared to beta-amyloid only. The method, then:
as §1, with “condition.” for “condition. The cells were incubated in blocking buffer (20 mM Tris, pH 7.4-buffer saline containing 0.1% tween 20 containing 5% lipid-free dried milk) for 1 hour, to suppress non-specific binding.”
To examine the effect of compound KHG25967 on phosphorylation of ERK (extracellular signal-regulated kinase) and expression of caspase 3 by beta-amyloid, a possible protein expression of ERK1/2 (extracellular signal-regulated kinase 1 & 2) and caspase 3 in BV-2cell culture stimulated with beta-amyloid were measured.
The activity of caspase 3 was measured as a cleavage at aspartic acid and serine by a stimulation, which is measured using anti-cleavage-caspase 3 antibody (Cell Signaling Technology Inc, Beverly, Mass., USA) through immunoblotting analysis. […]

The subject of a further experiment is phospho-ERK1. The experiment is described as follows: Immunoblotting of phospho-ERK1 in beta-amyloid stimulated BV-2 cell culture. The procedure:
as §1, §2

As for `O=C(O)CNC(=O)Nc1nc2ccccc2s1` [KHG25967, 2-(3-benzo[d]thiazole-2-ylureido)acetic acid], in the experiment with phospho-ERK2, the “reduction of expression level of phospho-ERK2 (FIG. 2B)” value was 70%. In the experiment on caspase 3, the “reduction of expression level of cleavage-caspase 3 (FIG. 2C)” value came out at 93%. In the experiment with phospho-ERK1 (beta-amyloid together with KHG25967 (50 nM) compared to beta-amyloid only), the “reduction of expression level of phospho-ERK1 (FIG. 2B)” value is recorded as 90%. Further, the “increase of phospho-ERK1/2 (Western blot, FIG. 2A)” value with phospho-ERK1 (culture treated with beta-amyloid in the presence of 50 nM KHG25967) was “considerably weakened”.
